Tests used:
Apis mellifera = settings: acute, mortality
Bibionidae = settings: chronic/long-term; duration: 28 days; other
Folsomia candida = settings: chronic/long-term; duration: 4 weeks; reproduction
Tagia sp. = settings: mortality
Mus musculus = settings: acute; oral; mortality
Oryctolagus sp. = settings: developmental; development

| Compound | LD50 (Apis mellifera; dermal) | LD50 (Apis mellifera; oral, unspecified) | NOEC (Bibionidae) | NOEC (Folsomia candida) | LC50 (Oncorhynchus mykiss; acute, duration: 96 hours, mortality) | NOEC (Oncorhynchus mykiss; chronic/long-term, duration: 28 days, development) | LC50 (Tagia sp.; acute, duration: 14 days) | NOEC (Tagia sp.; chronic/long-term) | LD50 (Coturnix japonica; acute, oral, diet, mortality) | LC50 (Coturnix japonica; acute, oral, mortality) | NOAEL (Coturnix japonica; chronic) | LD50 (Mus musculus) | NOAEL (Oryctolagus sp.) | NOAEL (Rattus norvegicus; chronic, duration: 2 years, body weight) | NOAEL (Rattus norvegicus; subchronic, duration: 90 days, oral, hematological) |
| --- | --- | --- | --- | --- | --- | --- | --- | --- | --- | --- | --- | --- | --- | --- | --- |
| O=S(=O)(O)O.Oc1cccc2cccnc12.Oc1cccc2cccnc12 [8-Hydroxyquinoline sulfate] | > 100 µg/piece | > 68.6 µg/piece | 167 mg/L | 52.4 mg/kg | 2.68 mg/L | 10.5 µg/L | > 409 mg/kg | 417 mg/kg | – | – | – | – | – | – | – |
| Oc1cccc2cccnc12 [8-Hydroxyquinoline] | – | – | – | – | – | – | – | – | > 1070 mg/kg-day | 311 mg/kg-day | 2.78 mg/kg-day | 177 mg/kg-day | 5 mg/kg-day | 73 mg/kg-day | 97.7 mg/kg-day |

From EPA's ToxValDB 9.5 (doi:10.2903/j.efsa.2016.4493)
